From US20250034186A1, “ANTIVIRAL COMPOUNDS” (priority 2020, published 2025) come the findings set out here.

The nature of one data set: HEp-2 cytotoxicity assay. The format is cell-based. Particulars: human, HEp-2 cells (uninfected), 4-5 days. The method, then:
Cytotoxicity of the compound of Formula I and compounds 1, 2, and 6 was determined in uninfected cells using the cell viability reagent in a similar fashion as described before for other cell types (Cihlar et al., Antimicrob Agents Chemother. 2008, 52(2):655-65.). HEp-2 (1.5×10^3 cells/well) and MT-4 (2×10^3 cells/well) cells were plated in 384-well plates and incubated with the appropriate medium containing 3-fold serially diluted compound ranging from 15 nM to 100,000 nM. Cells were cultured for 4-5 days at 37° C. Following the incubation, the cells were allowed to equilibrate to 25° C., and cell viability was determined by adding Cell-Titer Glo viability reagent. The mixture was incubated for 10 min, and the luminescence signal was quantified using an Envision plate reader. Untreated cell and cells treated at 2 μM puromycin (Sigma, St. Louis, MO) serve as 100% and 0% cell viability control, respectively.

In a further data set the test system is RSV A strain A2. The data set can be described thus: RSV HAE EC50, intracellular RSV RNA by real-time PCR. To be noted: for EC50: human respiratory syncytial virus, 72 h, RSV A2 in HAE cells, air-liquid interface, 3 days, RSV RNA. It is filed as cell-based. On the procedure: HAE cells are cultured at the air-liquid interface and have an apical side that is exposed to the air and a basal side that is in contact with the medium. Prior to experimentation, HAE were removed from their agar-based shipping packaging and were acclimated to 37° C./5% CO2 overnight in 1 ml of HAE Assay medium (AIR-100-MM, Mattek Corp). HAE were prepared for infection by washing the apical surface twice with 400 μL of PBS (either utilizing direct pipetting methods or by running each transwell through a trough containing PBS) to remove the mucus layer. Apical chambers were drained of PBS and tapped gently onto absorbent material to remove as much PBS as possible. After washing, the cells were transferred to fresh HAE maintenance media containing 4-fold serially diluted compound, delivered to the basal side of the cell monolayer, and apically infected with 100 μL of a 1:600 dilution of RSV A strain A2 1000× stock (ABI, Columbia, MD, Cat #10-124-000) in HAE assay medium for 3 hours at 37° C. in 5% CO2. The virus inoculum was removed and the apical surface of the cells was washed 3 times with PBS using either method previously described. The cells were then cultured in the presence of compound for 3 days at 37° C. Following the incubation, total RNA was extracted from the HAE cells using a MagMAX-96 Viral RNA isolation kit (Applied Biosystems, Foster City, CA, Cat #AM1836) and intracellular RSV RNA was quantified by real-time PCR. Approximately 25 ng of purified RNA was added to a PCR reaction mixture that contained 0.9 μM RSV N Forward and RSV N Reverse primers, 0.2 μM RSV N Probe and 1× Taqman RNA-to-Ct 1-Step Kit (Applied Biosystems, Foster City, CA, Cat #4392938). RNA levels were normalized using a Taqman GAPDH control primer set (Applied Biosystems, Foster City, CA, Cat #402869). Real-Time PCR Primers and Probe Used in the RSV A2 HAE Antiviral Assay: RSV N Forward […] (SEQ ID NO: 2), RSV N Reverse […] (SEQ ID NO: 3), RSV N Probe FAM-[…]-BHQ (SEQ ID NO: 4).

The test system of another data set is HRVc15 replicon. The data set is described as follows: HRVc15 HeLa replicon EC50. The format is cell-based, human rhinovirus. Particulars: for EC50: Human rhinovirus sp., HRV15, HRVc15 replicon in H1-HeLa cells, 48 hrs, luciferase, read-out: HRV15 Rep EC50. The method, then:
First, HRV replicon RNA is prepared. 5 μg of DNA Template (HRVc15 or HRVc25) is linearized with 2 μL of MluI enzyme in NEB buffer-3 in a final volume of 25 μL for 3 hours at 37° C. Following incubation, linearized DNA is purified on a PCR purification column and the following in vitro transcription is performed using the following conditions: 10 μL of RiboMAX Express T7 2× buffer, 1-8 μL of linear DNA template (1 μg), 0-7 μL nuclease free water, 2 μL enzyme mix T7 express. The final volume of 20 μL is mixed and incubated at 37° C. for 30 min. Following incubation, 1 μL of RQ1 RNase free DNase is added and the mixture is incubated at 37° C. for 15 min. The resulting RNA is then purified with the MegaClear Kit (Gibco Life Technologies Cat #11835-030) and is eluted two times with 50 μL of elution buffer at 95° C. H1-HeLa cells cultured in complete RPMI 1640 media containing 10% heat-inactivated FBS and 1% Penicillin/Streptomycin are seeded into T-225 flasks at a concentration of 2E6 cells/flask a day prior to transfection and are incubated at 37° C./5% CO2 overnight. On the day of transfection, cells are trypsinized following standard cell culture protocols and are washed two times with PBS. Following washes, cells are resuspended at a concentration of 1E7 cells/mL in PBS and the suspension is stored on wet ice. Electroporation is used to introduce replicon RNA into the H1-HeLa cells. A final volume of 10 μL containing 10 μg of replicon c15 or 1 μg of c25 replicon RNA, respectively, are pipetted into a 4 mm electroporation cuvette. The H1-HeLa cell stock is mixed by gently swirling and 0.5 mL of the cell stock previously prepared is transferred into the cuvette containing the replicon RNA. The combined solution is flicked to mix. Following mixing, cells are immediately electroporated using the following settings: 900V, 25 uF, infinite resistance, 1 pulse. Cuvettes are rested on ice for 10 min. Following the 10 min incubation, add 19 mL of ambient temperature, phenol red-free and antibiotic-free RPMI 1640 containing 10% heat-inactivated FBS per electroporation. 150 μL (4E4 cells) of the electroporated cell suspension are seeded per well into a 96 well clear-bottom, white cell culture plate, and are incubated at 25° C. for 30 min. […] Replicon activity is then measured by a Renilla-Glo Luciferase Assay system. Prior to signal quantification, plates are removed from incubators and are allowed to equilibrate to 25° C. after 50 uL is removed from each well. […] Plates are then incubated for 20 min at 25° C. under gentle agitation and luciferase signal are determined with a 0.1 second detection setting using an EnVision luciferase quantification reader.
On the technique in general: A replicon is a self-replicating genome or part of one, used to study replication in cells.

Consider `CCOC(=O)[C@H](C)NP(=O)(OC[C@@]1(C#N)O[C@@H](c2ccc3c(N)ncnn23)[C@H](O)[C@@H]1O)Oc1ccccc1` (stereo partly drawn) [Compound 1, reference compound], for which, in the data set “HEp-2 cytotoxicity assay”, the half-maximal cytotoxic concentration (CC50) (as a rule, the concentration at which the toxic effect on the cells reaches its halfway point) was over 91500 nM.

As for `CCC(CC)COC(=O)[C@H](C)NP(=O)(OC[C@@]1(C#N)O[C@@H](c2ccc3c(N)ncnn23)[C@H](O)[C@@H]1O)Oc1ccccc1` (stereo partly drawn) [Compound 2, reference compound], the EC50 (in general, the concentration needed to bring the measured effect to its halfway point) is 186 nM in the data set on RSV A strain A2 and 21 nM in the data set with HRVc15 replicon. For the same compound, the cytotoxic concentration (CC50) in the data set “HEp-2 cytotoxicity assay” is over 95400 nM.

As to `CCC(CC)COC(=O)[C@H](C)N[P@](=O)(OC[C@@]1(C#N)O[C@@H](c2ccc3c(N)ncnn23)[C@H](O)[C@@H]1O)Oc1ccccc1` [Compound 6, 2-ethylbutyl ((S)-(((2R,3S,4R,5S)-5-(4-aminopyrrolo[2,1-f][1,2,4]triazin-7-yl)-2-cyano-3,4-dihydroxytetrahydrofuran-2-yl)methoxy)(phenoxy)phosphoryl)alaninate], the figures for the EC50 in the data set on RSV A strain A2 and in the data set with HRVc15 replicon were 110 nM and 17 nM, respectively. In addition, the CC50 in “HEp-2 cytotoxicity assay” is over 95000 nM.

`C[C@H](N[P@](=O)(OC[C@@]1(C#N)O[C@@H](c2ccc3c(N)ncnn23)[C@H](O)[C@@H]1O)Oc1ccccc1)C(=O)OC1CCCCC1` [Formula I, cyclohexyl ((S)-(((2R,3S,4R,5S)-5-(4-aminopyrrolo[2,1-f][1,2,4]triazin-7-yl)-2-cyano-3,4-dihydroxytetrahydrofuran-2-yl)methoxy)(phenoxy)phosphoryl)-L-alaninate]: in the data set with RSV A strain A2 (EC50 ratio vs compound 2), the “times more potent relative to compound 2, RSV HAE” value is “about 8.1 times”. The EC50 is 23 nM with RSV A strain A2 and 9 nM in the data set on HRVc15 replicon. The “times more potent compared to compound 2, HRV15 Rep” value in the data set on HRVc15 replicon (EC50 ratio vs compound 2) is on record as “about 2.3 times”. This compound had a CC50 in the data set “HEp-2 cytotoxicity assay” of over 100000 nM.
